In patent US20220324835A1 (Nurix Therapeutics, Inc., priority 2018, published 2022) one finds fold induction and IC50 data, which are given here for eleven compounds.

The test system of experiment [1] is T-cell. Briefly: CD25 cell surface staining on T-cells co-stimulated with anti-CD3 and anti-CD28 antibody (Biological Example 2). Format: cell-based, human. The settings on record: Homo sapiens, T-cell, primary human total T-cells, baseline = anti-CD3/anti-CD28 stimulated cells without inhibitor, read-out: CD25 staining, Anti-CD3/Anti-CD28 stimulation, fold change over baseline; for fold induction at 0.3 µM: 0.3 μM compound; for fold induction at 1 µM: 1 μM compound; for fold induction at 4 µM: 4 μM compound. In short, it runs like this:
(§1)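 No assay protocol given; T-cells stimulated with anti-CD3 alone or anti-CD3 plus anti-CD28, with or without Cbl-b inhibitor. Activation read as IL-2 secretion or CD25 surface staining, expressed as fold over baseline from uninhibited cells […].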

Experiment [2] has as its system T-cell. As to the kind of experiment: CD25 cell surface staining on T-cells stimulated with anti-CD3 antibody alone (Biological Example 2). Format: cell-based. As to conditions: primary human total T-cells, baseline = anti-CD3/anti-CD28 stimulated cells without inhibitor, read-out: CD25 staining, Anti-CD3 stimulation, fold change over baseline; for fold induction at 1 µM: 1 μM compound; for fold induction at 8 µM: 8 μM compound.

For experiment [3], the system named is T-cell. Briefly: IL-2 secretion from T-cells stimulated with anti-CD3 antibody alone (Biological Example 2). It is filed as cell-based. As to conditions: primary human total T-cells, read-out: IL-2 secretion, Anti-CD3 stimulation, fold change over baseline; for fold induction at 1 µM: 1 μM compound; for fold induction at 8 µM: 8 μM compound.
The target in experiment [4] is T1, Cbl-b (Homo sapiens, UniProt Q13191). As to the kind of experiment: Cbl-b activity assay (Cbl-b inhibition assay), TR-FRET of Cbl-b interaction with UbcH5B-Ub. As to conditions: assay buffer with 100 mM NaCl, 60 nM Src kinase; read-out: Cbl-b activity IC50. Format: biochemical. In short, it runs like this:
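TR-FRET readout of Cbl-b binding to Bodipy-fluorescein N-terminally labeled Ub conjugated to UbcH5B C85K, measured with compound present. After compound incubation, 60 nM Src kinase with 1 mM ATP and 5 mM MgCl2 (final) was added for 1.5 h, then a further 1 h incubation; asterisked values used 50 mM NaCl buffer and 30 nM Src.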

Experiment [5] deals with T-cell. As to the kind of experiment: IL-2 secretion from T-cells co-stimulated with anti-CD3 and anti-CD28 antibody (Biological Example 2). Format: cell-based, human. As to conditions: Homo sapiens, T-cell, primary human total T-cells, baseline = anti-CD3/anti-CD28 stimulated cells without inhibitor, read-out: IL-2 secretion, Anti-CD3/Anti-CD28 stimulation, fold change over baseline; for fold induction at 0.3 µM: 0.3 μM compound; for fold induction at 1 µM: 1 μM compound; for fold induction at 4 µM: 4 μM compound. The gist of the method:
as §1

Experiment [6] concerns the target T1, Cbl-b. As to the kind of experiment: Cbl-b inhibition assay (Cbl-b activity assay, FRET, Biological Example 1; 100 mM NaCl, 60 nM Src kinase). Format: biochemical. The settings on record: upper bound stated in text lists; read-out: IC50 values in the Cbl-b inhibition assay of Biological Example 1. The gist of the method:
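TR-FRET assay using N-terminal biotinylated Avi-tagged Cbl-b bound to streptavidin-terbium, Src kinase for Cbl-b phosphorylation, and UbcH5B irreversibly conjugated to Bodipy-Fluorescein-ubiquitin. Phosphorylated Cbl-b binds UbcH5B-Ub, bringing the fluorophores together; inhibition is read as loss of FRET signal.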

T1 sequence (Q13191 36-427): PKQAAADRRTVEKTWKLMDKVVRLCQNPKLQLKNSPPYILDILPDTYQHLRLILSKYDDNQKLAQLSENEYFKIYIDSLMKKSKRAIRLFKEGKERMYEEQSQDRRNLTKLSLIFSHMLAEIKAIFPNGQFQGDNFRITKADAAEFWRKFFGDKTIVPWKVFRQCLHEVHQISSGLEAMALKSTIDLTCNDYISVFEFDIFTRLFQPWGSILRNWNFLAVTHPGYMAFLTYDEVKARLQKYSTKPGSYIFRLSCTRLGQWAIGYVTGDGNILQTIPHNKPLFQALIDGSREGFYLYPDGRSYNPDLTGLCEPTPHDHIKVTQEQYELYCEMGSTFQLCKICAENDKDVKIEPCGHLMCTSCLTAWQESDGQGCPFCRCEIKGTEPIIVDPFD

Take `C[C@@H](c1cccc(N2Cc3c(cccc3C(F)(F)F)C2=O)c1)[C@H](F)c1nncn1C` (racemic) [Compound 473, 2-(3-((1S,2S and 1R,2R)-1-fluoro-1-(4-methyl-4H-1,2,4-triazol-3-yl)propan-2-yl)phenyl)-4-(trifluoromethyl)isoindolin-1-one]: the fold induction at 0.3 µM in experiment [1] was in the range of 1.01 to 1.3; in experiment [5], 1.01 to 2.5. The fold induction at 1 µM in experiment [1] lay in the range of 1.01 to 1.3; in experiment [2] it was 0.601 to 0.8; in experiment [3], 0.051 to 0.1; in experiment [5], 1.01 to 2.5. Also, the fold induction at 4 µM in experiment [1] was in the range of 1.01 to 1.3; in experiment [5], 2.51 to 5. Further, the fold induction at 8 µM in experiment [2] was above 1; in experiment [3], 0.151 to 0.2. The IC50 in experiment [4] is 0.301 to 1 µM.

Take `CN1CC[C@@H](O)[C@@H](Cc2cc3c(c(C(F)(F)F)c2)CN(c2cccc(C4(Cc5nncn5C)COC4)c2)C3=O)C1` (racemic) [Compound 532, 6-(((cis)-4-hydroxy-1-methylpiperidin-3-yl)methyl)-2-(3-(3-((4-methyl-4H-1,2,4-triazol-3-yl)methyl)oxetan-3-yl)phenyl)-4-(trifluoromethyl)isoindolin-1-one]: the fold induction at 0.3 µM in experiment [1] was 1.01 to 1.3; in experiment [5], 1.01 to 2.5. Further, the fold induction at 1 µM in experiment [1] is 1.01 to 1.3; in experiment [2] it was 0.801 to 1; in experiment [3], 0.101 to 0.15; in experiment [5], 2.51 to 5. Moreover, the concentration for half-maximal inhibition (IC50) in experiment [4] is below 0.1 µM; in experiment [6] it was at most 0.1 µM.

For `Cn1cnnc1CC1(c2cccc(N3Cc4c(cc(CN5CC[C@H]6C[C@H]65)cc4C(F)(F)F)C3=O)c2)COC1` (single isomer, unassigned) [Compound 486a], the fold induction at 0.3 µM is 1.51 to 1.75 in experiment [1] and above 7.5 in experiment [5]. The fold induction at 1 µM was 1.51 to 1.75 in experiment [1], above 1 in experiment [2], above 0.201 in experiment [3] and above 7.5 in experiment [5]. Moreover, the IC50 is below 0.1 µM in experiment [4] and at most 0.1 µM in experiment [6].

As for `Cn1cnnc1CC1(c2cccc(N3Cc4c(cc(CN5CC[C@@H]6C[C@@H]65)cc4C(F)(F)F)C3=O)c2)COC1` (single isomer, unassigned) [Compound 486b], the fold induction at 0.3 µM was 1.51 to 1.75 in experiment [1] and above 7.5 in experiment [5]. Further, the fold induction at 1 µM is 1.51 to 1.75 in experiment [1], above 1 in experiment [2], above 0.201 in experiment [3] and above 7.5 in experiment [5]. Moreover, the concentration for half-maximal inhibition (IC50) was below 0.1 µM in experiment [4] and at most 0.1 µM in experiment [6].

`C[C@H](c1cc2c(c(C(F)(F)F)c1)CN(c1cccc(C3([C@H](F)c4nncn4C)COC3)c1)C2=O)N1CCC2(CC2)C1` (single isomer, unassigned) [Compound 516]: the fold induction at 0.3 µM in experiment [1] was above 1.76; in experiment [5], above 7.5. Moreover, the fold induction at 1 µM in experiment [1] was above 1.76; in experiment [2] it was above 1; in experiment [3], above 0.201; in experiment [5], above 7.5. Moreover, the IC50 in experiment [4] is below 0.1 µM; in experiment [6], at most 0.1 µM.

Take `Cn1cnnc1C[C@@]1(c2cccc(N3Cc4c(cc(CN5CCC6(CC6)C5)cc4C(F)(F)F)C3=O)c2)CCOC1` (single isomer, unassigned) [Compound 517a]: the fold induction at 0.3 µM in experiment [1] lay within 1.01 to 1.3; in experiment [5], 2.51 to 5. In addition, the fold induction at 1 µM was 1.01 to 1.3 in experiment [1], 0.801 to 1 in experiment [2], 0.101 to 0.15 in experiment [3] and above 7.5 in experiment [5]. For the same compound, the values for the IC50 in experiment [4] and in experiment [6] were below 0.1 µM and at most 0.1 µM, respectively.

Take `Cn1cnnc1C(F)[C@](C)(F)c1cccc(N2Cc3c(cccc3C(F)(F)F)C2=O)c1` (stereo in doubt) [Compound 478a, 2-(3-((1S,2R)-1,2-difluoro-1-(4-methyl-4H-1,2,4-triazol-3-yl)propan-2-yl)phenyl)-4-(trifluoromethyl)isoindolin-1-one]: in experiment [1], the fold induction at 0.3 µM was below 1, the fold induction at 1 µM was below 1 and the fold induction at 4 µM lay within 1.01 to 1.3. For the same compound, in experiment [2], the fold induction at 1 µM was below 0.6 and the fold induction at 8 µM was 0.601 to 0.8. In addition, in experiment [3], the fold induction at 1 µM is below 0.05 and the fold induction at 8 µM fell in the range of 0.051 to 0.1. Also, the IC50 in experiment [4] is 0.301 to 1 µM. Besides, in experiment [5], the fold induction at 0.3 µM is below 1, the fold induction at 1 µM is below 1 and the fold induction at 4 µM is below 1.

As for `Cn1cnnc1[C@@H](F)[C@](C)(F)c1cccc(N2Cc3c(cc(C4CC4)cc3C(F)(F)F)C2=O)c1` (stereo in doubt) [Compound 482, 6-cyclopropyl-2-[3-[(1R,2R)-1,2-difluoro-1-(4-methyl-4H-1,2,4-triazol-3-yl)propan-2-yl]phenyl]-4-(trifluoromethyl)-2,3-dihydro-1H-isoindol-1-one], in experiment [1], the fold induction at 0.3 µM is 1.01 to 1.3, the fold induction at 1 µM was in the range of 1.01 to 1.3 and the fold induction at 4 µM is 1.01 to 1.3. Moreover, in experiment [2], the fold induction at 1 µM lay in the range of 0.601 to 0.8 and the fold induction at 8 µM lay within 0.801 to 1. For the same compound, in experiment [3], the fold induction at 1 µM was 0.051 to 0.1 and the fold induction at 8 µM was in the range of 0.051 to 0.1. In addition, in experiment [4], the IC50 was in the range of 0.301 to 1 µM. Besides, in experiment [5], the fold induction at 0.3 µM is below 1, the fold induction at 1 µM lay in the range of 1.01 to 2.5 and the fold induction at 4 µM is 1.01 to 2.5.

On to `Cn1cnnc1C(F)(F)[C@](C)(F)c1cccc(N2Cc3c(cc(C(=O)N4CC(C(F)F)C4)cc3C(F)(F)F)C2=O)c1` [Compound 439, (R)-6-(3-(difluoromethyl)azetidine-1-carbonyl)-2-(3-(1,1,2-trifluoro-1-(4-methyl-4H-1,2,4-triazol-3-yl)propan-2-yl)phenyl)-4-(trifluoromethyl)isoindolin-1-one], for which the fold induction at 0.3 µM fell in the range of 1.01 to 1.3 in experiment [1] and 1.01 to 2.5 in experiment [5]. Further, the fold induction at 1 µM lay in the range of 1.01 to 1.3 in experiment [1], 0.601 to 0.8 in experiment [2], 0.051 to 0.1 in experiment [3] and 1.01 to 2.5 in experiment [5]. The fold induction at 4 µM is 1.01 to 1.3 in experiment [1] and 1.01 to 2.5 in experiment [5]. In addition, the fold induction at 8 µM was in the range of 0.801 to 1 in experiment [2] and 0.051 to 0.1 in experiment [3]. In addition, in experiment [4], the IC50 is 0.301 to 1 µM.

In the case of `Cn1cnnc1C(F)(F)[C@@](C)(F)c1cccc(N2Cc3c(cc(CN4CC[C@H](F)C4)cc3C(F)(F)F)C2=O)c1` [Compound 449, 6-(((S)-3-fluoropyrrolidin-1-yl)methyl)-2-(3-((S)-1,1,2-trifluoro-1-(4-methyl-4H-1,2,4-triazol-3-yl)propan-2-yl)phenyl)-4-(trifluoromethyl)isoindolin-1-one], in experiment [1], the fold induction at 0.3 µM was below 1, the fold induction at 1 µM is below 1 and the fold induction at 4 µM fell in the range of 1.01 to 1.3. Also, in experiment [2], the fold induction at 1 µM was 0.601 to 0.8 and the fold induction at 8 µM is 0.801 to 1. In experiment [3], the fold induction at 1 µM was in the range of 0.051 to 0.1 and the fold induction at 8 µM is 0.051 to 0.1. For the same compound, the half-maximal inhibitory concentration (IC50) in experiment [4] lay within 0.301 to 1 µM. For the same compound, in experiment [5], the fold induction at 0.3 µM was below 1, the fold induction at 1 µM was below 1 and the fold induction at 4 µM was in the range of 1.01 to 2.5.

Regarding `CC(Cc1nncn1C)c1cc(C2CCC2)cc(N2Cc3c(cccc3C(F)(F)F)C2=O)c1` (stereo not shown) [Compound 476, 2-(3-cyclobutyl-5-(1-(4-methyl-4H-1,2,4-triazol-3-yl)propan-2-yl)phenyl)-4-(trifluoromethyl)isoindolin-1-one], the values for the fold induction at 0.3 µM in experiment [1] and in experiment [5] were 1.01 to 1.3 and 1.01 to 2.5, respectively. Moreover, the fold induction at 1 µM in experiment [1] fell in the range of 1.01 to 1.3; in experiment [2], 0.601 to 0.8; in experiment [3], 0.051 to 0.1; in experiment [5] it was 1.01 to 2.5. The fold induction at 4 µM lay in the range of 1.01 to 1.3 in experiment [1] and 1.01 to 2.5 in experiment [5]. Also, the values for the fold induction at 8 µM in experiment [2] and in experiment [3] were 0.801 to 1 and 0.051 to 0.1, respectively. In addition, the IC50 in experiment [4] is 0.301 to 1 µM.
